The nature of data set [1]: Peptide gelation study by vial inversion test (CGC and gelation time). It is filed as physicochemical. As to conditions: 1×PBS; for gelation time: vial inversion test. Here is the method:
The critical gelation concentration (CGC) and gelation time of hydrogels formed by the catechol peptides in 1×PBS determined by vial inversion test are summarized below:
The peptide powder was dissolved in 0.90 mL of MilliQ® water and vortexed until fully dissolved. Then, 0.10 mL of 10×PBS buffer were added to the peptide solution to reach a final concentration of 1×PBS. Gelation of the solution in the vial was observed by vial inversion method. The time and critical gelation concentration (CGC) at which each peptide formed a hydrogel were recorded.

A short description of data set [2]: AFM force spectroscopy adhesion measurement in liquid. It is filed as physicochemical. As to conditions: for reduction of adhesion force by addition of NaCl: NaCl versus MilliQ water. As to the method: In one embodiment, the peptides were dissolved in the proper solution at a concentration of 10 mg/mL. The peptide solutions were spotted on a freshly cleaved mica sheet and the measurement was performed in liquid.
In one embodiment, the adhesion properties of the Dopa peptides are influenced by the construct lysine-Dopa and by the position of the catechol moiety in the peptide sequence, as indicated by the AFM force spectroscopy results in liquid. In a typical force spectroscopy curve the probe is several times approached to the surface and retracted and for every cycle of retraction the maximum force of adhesion is recorded. The incorporation of a catechol moiety near a lysine would enhance adhesion to negatively charged surfaces. FIG. 28 illustrates the effect of lysine on adhesion to negatively charged surfaces. Therefore, probes and substrates that were manifesting negative charges on their surfaces, such as the silicon probe and the freshly cleaved mica substrate, are used in the AFM spectroscopy. The setup of probe and substrate is illustrated in FIG. 29.
The peptides dissolved in the proper solution at 13 mM concentration each, were spotted on a freshly cleaved mica sheet and the measurement was performed in liquid. Several force curves were recorded for different buffers. […] In FIG. 30, the inset image represents the maximum extension of each peptide dissolved in water, when manually pulled between two glass slides. Also in FIG. 30, the approach part of the curve contains the important information defined as “jump to contact”, while the retract part of the F-D curve contains the adhesion force value. […] Two controls were also introduced: namely the original peptide IIZK, and an alternative peptide IIFK. To better understand the influence of Dopa on the adhesion properties of the peptide, the original short peptide IIZK would make a perfect negative control. We also introduced as a control the IIFK peptide in order to understand the effect of IIZK itself on adhesion. In FIG. 32, statistical significance expressed as p<0.01.
AFM topography measurements were performed on a Dimension Icon SPM (Bruker®). The samples were prepared as follows: peptides were dissolved at 13 mM concentration in MilliQ® water; after 30 minutes, 20 μl of these solutions were dropped on freshly cleaved mica sheets and immediately dried with an N2 stream. Measurements were immediately performed in tapping mode in air by the use of an AFM probe AC_240TS_R3 (Olympus®) with nominal free oscillation at roughly 70 kHz and a nominal spring constant of 2 N/m. The probe was calibrated by contact-free method.^54 Free oscillation amplitude was set at 200 mV with a 5% damping during tapping mode measurement. AFM adhesion measurements were performed on a JPK Nanowizard™ III mounted on Olympus® IX-81 inverted optical microscope. A mica sheet was glued one day before the experiment with double component epoxy glue to a glass slide and enclosed in a plastic o-ring provided by the JPK company for liquid measurements. Each peptide was dissolved in MilliQ® water at a concentration of 13 mM and mixed gently. Starting with the measurement in MilliQ® water, 50 μL of the solution were dropped on the freshly cleaved mica sheet within 5 minutes from the preparation of the solution and let equilibrate for 10 minutes. After, the excess solution was removed by pipetting and discarded. Then 1 mL of MilliQ® water was added gently from the side and after 5 minutes, the sample was rinsed 3 times by additional 1 mL MilliQ® water. Finally, the sample was measured by AFM force spectroscopy (Quantitative imaging mode) with additional 1 mL MilliQ® water. The MilliQ® water was exchanged after the measurement alternatively with a water solution containing 137 mM NaCl or 10 mM Phosphate ions (a combination of Na2HPO4·7H2O and NaH2PO4·H2O to reach pH 7.4). After performing the force spectroscopy map in these two different solutions, eventually, the liquid was exchanged with 1×PBS pH 7.4. […]

Where a SMILES comes first, the peptide text is derived from it. [ ]: non-standard residue; d: D form. Dopa = N[C@@H](Cc1ccc(O)c(O)c1)C(=O)O; Cha = N[C@@H](CC1CCCCC1)C(=O)O

With `CC[C@H](C)[C@H](NC(=O)[C@H](Cc1ccc(O)c(O)c1)NC(C)=O)C(=O)N[C@H](C(=O)N[C@@H](CC1CCCCC1)C(=O)N[C@@H](CCCCN)C(N)=O)[C@@H](C)CC` [DoIIZK, Ac-Dopa-Ile-Ile-Cha-Lys-NH2] (Ac-[Dopa]II[Cha]K-NH2), the “critical gelation concentration (CGC)” value in data set [1] came to 2 mg/mL. Also, the gelation time result in data set [1] (peptide 1 mg/mL) was “Not gelating”; in data set [1] (peptide 2 mg/mL), 45 min; in data set [1] (peptide 2 mg/mL, listed as DopaIIZK), >45 min; in data set [1] (peptide 3 mg/mL), >30 min; in data set [1] (peptide 4 mg/mL) it was >20 min; in data set [1] (peptide 5 mg/mL), >10 min. Also, the “Force of adhesion (Geometric Mean)” value is recorded as 34.81 PN in data set [2] (10 mM PO4, peptide 13 mM); 64.64 PN in data set [2] (137 mM NaCl, peptide 13 mM); 13.36 PN in data set [2] (1×PBS, peptide 13 mM); 112.7 PN in data set [2] (MilliQ water, peptide 13 mM). In addition, in data set [2], the “reduction of adhesion force by addition of NaCl” value (“reduction of adhesion force” below) is “about 50%”.

Regarding `CC[C@H](C)[C@H](NC(C)=O)C(=O)N[C@H](C(=O)N[C@@H](CC1CCCCC1)C(=O)N[C@@H](Cc1ccc(O)c(O)c1)C(=O)N[C@@H](CCCCN)C(N)=O)[C@@H](C)CC` [IIZDoK, Ac-Ile-Ile-Cha-Dopa-Lys-NH2] (Ac-II[Cha][Dopa]K-NH2), the “critical gelation concentration (CGC)” value in data set [1] is 4 mg/mL. Further, the gelation time result in data set [1] (peptide 1 mg/mL) is reported as “Not gelating”; in data set [1] (peptide 2 mg/mL) it was “Not gelating”; in data set [1] (peptide 3 mg/mL), “Not gelating”; in data set [1] (peptide 4 mg/mL), 80 min; in data set [1] (peptide 4 mg/mL, listed as IIZDopaK), >80 min; in data set [1] (peptide 5 mg/mL), >75 min. Besides, the “Force of adhesion (Geometric Mean)” value in data set [2] (10 mM PO4, peptide 13 mM) is 22.47 PN; in data set [2] (137 mM NaCl, peptide 13 mM), 44.01 PN; in data set [2] (1×PBS, peptide 13 mM) it was 23.33 PN; in data set [2] (MilliQ water, peptide 13 mM) it was 72 PN. The “reduction of adhesion force” value in data set [2] is listed as “about 50%”.

For the compound `CC[C@H](C)[C@H](NC(C)=O)C(=O)N[C@H](C(=O)N[C@@H](CC1CCCCC1)C(=O)N[C@@H](CCCCN)C(=O)N[C@@H](Cc1ccc(O)c(O)c1)C(N)=O)[C@@H](C)CC` [IIZKDo, Ac-Ile-Ile-Cha-Lys-Dopa-NH2] (Ac-II[Cha]K[Dopa]-NH2), the “critical gelation concentration (CGC)” value in data set [1] was 3 mg/mL. Moreover, the gelation time result was “Not gelating” in data set [1] (peptide 1 mg/mL); “Not gelating” in data set [1] (peptide 2 mg/mL); 30 min in data set [1] (peptide 3 mg/mL); >30 min in data set [1] (peptide 3 mg/mL, listed as IIZKDopa); >21 min in data set [1] (peptide 4 mg/mL); >16 min in data set [1] (peptide 5 mg/mL). Besides, the “Force of adhesion (Geometric Mean)” value amounted to 13.89 PN in data set [2] (10 mM PO4, peptide 13 mM); 76.89 PN in data set [2] (137 mM NaCl, peptide 13 mM); 29.5645 PN in data set [2] (1×PBS, peptide 13 mM); 73.31 PN in data set [2] (MilliQ water, peptide 13 mM). Moreover, the “reduction of adhesion force” value in data set [2] is on record as “did not significantly impact”.

These data come from US12116421B2, “Peptide-based Dopa containing adhesive gels” (KING ABDULLAH UNIVERSITY OF SCIENCE AND TECHNOLOGY, priority 2020, dated 2024).
